These results are taken from PubChem BioAssay (NCI).

Each structure is given as a SMILES string. Values joined by “and” are separate entries in the source; they are usually repeats but may differ in a detail not shown here. Identical values can stand only once.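 Five concentrations, 48 hours, 96-well plates. Abbreviation: GI50, concentration required for 50% inhibition of growth. TGI: concentration producing complete growth inhibition.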 Bounds are passed on as bounds.

Assay in all cases: NCI-60 cell line screen, 48 h
Test [1] relates to SK-MEL-28 melanoma.
For test [2], the system named is TK-10 renal.
Test [3] concerns T-47D breast.
Test [4] deals with NCI-H226 lung.
Test [5] deals with CCRF-CEM leukemia.
The test system of test [6] is HS 578T breast.
The subject of test [7] is HCT-116 colon.
Test [8] has as its system NCI-H522 lung.
In test [9] the test system is OVCAR-5 ovarian.
Test [10] deals with K-562 leukemia.

Take `Cn1ccc2c(NCCN)c3c(c(NCCN)c21)C(=O)c1ccccc1C3=O`: the GI50 in test [1] was 15.6 µM; in [2] it was 2.53 µM; in test [3] it was 27.4 µM; in [4], 1.3 µM; in test [5], 0.371 µM; in [6] it was 1.84 µM. For the same molecule, the GI50 was 0.398 µM in [7], 0.498 µM in test [8], 2.78 µM in test [9] and 589 nM in test [10]. In addition, the TGI stood at 36.7 µM in test [1]; 9.96 µM in test [2]; 62 µM in [3]; 5.8 µM in test [4]; 5.26 µM in [6]; 4.41 µM in test [7]. Further, the TGI in test [8] stood at 4.92 µM; in [9] it was 12 µM; in [10], 83.6 µM.
`Cc1ccccc1CN1CC2=C(CCN(Cc3ccccc3)C2=O)N2CCN=C12`: the TGI in [1] was over 100 µM; in test [2] it was over 100 µM; in [3], over 84.2 µM; in test [4] it was over 100 µM; in test [5], over 100 µM; in [6] it was over 100 µM. The TGI in test [7], in [8], in test [9] and in test [10] was over 100 µM in each case. In addition, in test [5], the GI50 is 0.7 µM.
For the molecule `CCC1=C[C@@H]2CN(C1)Cc1c([nH]c3ccccc13)[C@@](C(=O)OC)(c1cc3c(cc1OC)N(C=O)[C@H]1[C@@](O)(C(=O)OC)[C@H](OC(C)=O)[C@]4(CC)[C@@H]5C[C@@H]5CN5CC[C@]31[C@@H]54)C2`, the GI50 in test [1] was 0.0014 µM; in test [2], 0.315 µM; in test [3] it was under 0.000625 µM; in [5] it was under 0.000625 µM; in test [6], 0.00181 µM; in test [7] it was under 0.000625 µM. Besides, the values for the GI50 in test [8], in test [9] and in test [10] were under 0.000625 µM, 0.00255 µM and under 0.625 nM, respectively. For the same molecule, the TGI in test [1], in [2], in test [3], in test [4], in [5] and in test [6] was over 6.25 µM each time. The TGI in test [8] is 0.01 µM; in test [9] it was over 6.25 µM; in test [10], over 6.25 µM.
As for `O=C1CCCCCCCC/C=C/CCC(c2ccco2)O1` (stereo not given), the GI50 was 73.3 µM in [1]; 23.5 µM in [2]; 21 µM in test [3]; 34.8 µM in test [4]; 27 µM in [5]; 16.2 µM in test [6]. The GI50 in test [7] is 31.2 µM; in test [8] it was 37.7 µM; in [9] it was over 100 µM; in test [10], 35200 nM. The TGI in test [1] is over 100 µM; in [2] it was over 100 µM; in [3] it was over 100 µM; in [4] it was over 100 µM; in test [5], over 100 µM; in [6], 77.9 µM. Also, the TGI in test [7], in [8], in test [9] and in test [10] was over 100 µM each time.
For `COc1ccc(/C=C\c2cc(OC)c(OC)c(OC)c2)cc1OC(=O)C(N)CCC(=O)O` (stereo not given), the TGI was over 59 µM in test [1]; over 100 µM in [2]; over 100 µM in test [3]; 0.0415 µM in test [4]; over 100 µM in [5]; over 100 µM in test [9]. For the same molecule, the GI50 in test [3] was over 100 µM; in test [5], 0.000576 µM; in test [6], 0.000788 µM and 0.00046 µM; in [7], 0.000425 µM; in test [8], 0.00114 µM and 0.000248 µM; in test [10] it was 0.311 nM and 0.0702 nM.
As for `COc1c(C)c2c(c(O)c1C/C=C(\C)CCC(=O)OCCN1CCOCC1)C(=O)OC2`, the GI50 in test [1] is 0.236 µM; in [2], over 24.7 µM; in test [3], 0.612 µM; in test [4], 0.581 µM; in test [5] it was 0.187 µM; in test [6], 7 µM. Besides, the GI50 in test [7] was 0.131 µM; in [8] it was 0.3 µM; in [9] it was 2.09 µM; in [10], 151 nM. In addition, the TGI in test [1], in test [2], in test [3], in test [4], in [5] and in test [6] was over 100 µM each time. Also, the TGI in test [7], in test [8], in [9] and in [10] was over 100 µM throughout.
In the case of `COc1cc(Cl)cc(-c2nn(C(=O)NCCN3CCN(C)CC3)cc2-c2ccncc2)c1`, the GI50 in test [1] is 5.31 µM; in [2], 3.67 µM; in test [3], 20.8 µM; in test [4] it was 4.29 µM; in [5] it was 43 µM; in [6] it was 4.96 µM. For the same molecule, the GI50 in [7] is 14.8 µM; in test [8], 20.3 µM; in test [9] it was 17.9 µM; in test [10], 28500 nM. For the same molecule, the TGI in test [1] is 40.6 µM; in test [2], over 100 µM; in [3] it was over 100 µM; in test [4], 57.3 µM; in [5] it was over 100 µM; in [6], 32.9 µM. Besides, the TGI in test [7] was 31.3 µM; in test [8] it was 53.6 µM; in test [9], 68.2 µM; in test [10] it was over 100 µM.
